Molecular target: T1, human ML1B receptor (Homo sapiens, UniProt P49286)
T1 construct: expressed in transfected cells; host or cells: NIH 3T3 cells (stably transfected; obtained from S. M. Reppert)
T1 sequence (P49286 1-362): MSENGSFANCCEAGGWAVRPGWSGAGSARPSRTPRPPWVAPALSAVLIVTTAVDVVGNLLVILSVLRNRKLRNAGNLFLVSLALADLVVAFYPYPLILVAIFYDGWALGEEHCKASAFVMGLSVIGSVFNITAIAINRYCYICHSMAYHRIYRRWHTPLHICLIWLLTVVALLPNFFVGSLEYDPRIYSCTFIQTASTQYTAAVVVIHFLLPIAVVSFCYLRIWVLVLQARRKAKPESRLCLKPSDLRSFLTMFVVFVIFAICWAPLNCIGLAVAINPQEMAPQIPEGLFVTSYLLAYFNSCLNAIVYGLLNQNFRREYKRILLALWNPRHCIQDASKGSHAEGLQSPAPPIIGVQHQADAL
Experiment: Binding to human melatonergic receptors (2-[125I]-iodomelatonin, NIH 3T3 cell membranes, human ML1B receptor)
Conditions: IC50 class; 200 pM 2-[125I]-iodomelatonin, 37° C., 1 hour, membranes of NIH 3T3 cells transfected with human ML1B receptor; read-out: Melatonin Binding
Procedure: Measurement of Binding to Human Melatonergic Receptors The melatonergic binding affinities of various compounds of Formula I were determined by the method of Reppert, S. M., Weaver, D. R., and Ebisawa, R. (Neuron, Volume 13, 1177-1185, 1994). The assays were incubated at 37° C. for 1 hour, and the reaction was terminated by filtration. The filters were washed with wash buffer. […] The reagents, membrane and other techniques used in the melatonergic binding assays are more fully described below: […] Reagents: (a) 50 mM Tris buffer containing 12.5 mM MgCl2, and 2 mM EDTA, pH 7.4 at 37° C. (b) Wash buffer: 20 mM Tris base containing 2 mM MgCl2. pH 7.4 at room temperature. (c) Melatonin (10^-5 M final concentration). (d) 2-[^125 I]-Iodomelatonin, 200 pM final concentration Source: NEN 2. Membrane preparation: NIH 3T3 cells stably transfected with the human ML1B receptor were obtained from S. M. Reppert and maintained. Cells were pelleted when confluent. The supernatant was discarded and the pellets frozen. For preparing membrane homogenates, the pellets are thawed on ice and resuspended in TME buffer, Tris base, MgCl2, EDTA (pH 7.4 at 37° C.), supplemented with aprotinin, leupeptin, and […]. The cells were then homogenized and centrifuged. The resulting pellet was resuspended with a Dounce homogenizer in TME and frozen. At assay, a small aliquot was thawed on ice and resuspended in TME buffer.

Compared with `COCC(=O)N1CCC(C2CCc3ccc(OC)cc32)CC1` (single isomer, unassigned; (+)) [(+)-1-(2-Methoxyacetyl)-4-(6-methoxy-indan-1-yl)piperidine], `CCC(=O)N1CCC(C2CCc3ccc(OC)cc32)CC1` (single isomer, unassigned; (-)) [(-)-4-(6-Methoxy-indan-1-yl)-1-propanoylpiperidine] is lower in IC50: 0.1 to 0.25 µM for the first, under 0.01 µM for the second.

`COc1ccc2c(c1)C(C1CCN(C(=O)C3CC3)CC1)CC2` (single isomer, unassigned; (+)) [(+)-1-(Cyclopropylcarbonyl)-4-(6-methoxy-indan-1-yl)piperidine] and `COc1ccc2c(c1)C(C1CCN(C(=O)C3CC3)CC1)CCC2` (stereo not shown) [1-(Cyclopropylcarbonyl)-4-(7-methoxy-tetralin-1-yl)piperidine] cannot be ordered by IC50: under 0.01 µM for the first, under 0.01 µM for the second.

First: COc1ccc2c(c1)C(C1CCN(C=O)CC1)CC2 (single isomer, unassigned; (+)) [(+)-1-Formyl-4-(6-methoxy-indan-1-yl)piperidine]
Second: COc1ccc2c(c1)C(C1CCN(C(C)=O)CC1)CC2 (single isomer, unassigned; (-)) [(-)-1-Acetyl-4-(6-methoxy-indan-1-yl)piperidine]
The IC50 of the first is higher: 0.01 to 0.1 µM for the first, under 0.01 µM for the second.

Compared with `COc1ccc2c(c1)C(C1CCN(C(=O)C(C)C)CC1)CC2` (single isomer, unassigned; (+)) [(+)-4-(6-Methoxy-indan-1-yl)-1-(2-methylpropanoyl)piperidine], `COc1ccc2c(c1)C(C1CCN(C(=O)N(C)C)CC1)CC2` (single isomer, unassigned; (-)) [(-)-N,N-Dimethyl-4-(6-methoxy-indan-1-yl)piperidine-1-carboxamide] is lower in IC50: 0.01 to 0.1 µM for the first, under 0.01 µM for the second. The second is the more potent here.

`COc1ccc2c(c1)C(C1CCN(C(=O)C(F)(F)F)CC1)CC2` (single isomer, unassigned; (+)) [(+)-4-(6-Methoxy-indan-1-yl)-1-(trifluoroacetyl)piperidine] and `CCC(C)(C)C(=O)N1CCC(C2CCc3ccc(OC)cc32)CC1` (stereo not shown) [1-(2,2-Dimethyl-butanoyl)-4-(6-methoxy-indan-1-yl)piperidine] fall in the same range of IC50: 0.01 to 0.1 µM for the first, 0.01 to 0.1 µM for the second.

`CNC(=O)N1CCC(C2CCc3ccc(OC)cc32)CC1` (single isomer, unassigned; (+)) [(+)-N-Methyl-4-(6-methoxy-indan-1-yl)piperidine-1-carboxamide] and `CCNC(=O)N1CCC(C2CCc3ccc(OC)cc32)CC1` (single isomer, unassigned; (+)) [(+)N-Ethyl-4-(6-methoxy-indan-1-yl)piperidine-1-carboxamide] fall in the same range of IC50: 0.01 to 0.1 µM for the first, 0.01 to 0.1 µM for the second.

`COc1ccc2c(c1)C(C1CCN(C(=O)C3CC3)CC1)CC2` (single isomer, unassigned; (-)) [(-)-1-(Cyclopropylcarbonyl)-4-(6-methoxy-indan-1-yl)piperidine] and `O=C(C1CC1)N1CCC(C2CCc3ccc(F)cc32)CC1` (stereo not shown) [1-(Cyclopropylcarbonyl)-4-(6-fluoro-indan-1-yl)piperidine] cannot be ordered by IC50: under 0.01 µM for the first, under 0.01 µM for the second.

`CCCC(=O)N1CCC(C2CCc3ccc(OC)cc32)CC1` (single isomer, unassigned; (-)) [(-)-1-Butanoyl-4-(6-methoxy-indan-1-yl)piperidine] and `CCCCC(=O)N1CCC(C2CCc3ccc(OC)cc32)CC1` (single isomer, unassigned; (-)) [(-)-4-(6-Methoxy-indan-1-yl)-1-pentanoylpiperidine] cannot be ordered by IC50: under 0.01 µM for the first, under 0.01 µM for the second.

`COc1ccc2c(c1)C(C1CCN(C=O)CC1)CC2` (single isomer, unassigned; (-)) [(-)-1-Formyl-4-(6-methoxy-indan-1-yl)piperidine] and `CNC(=O)N1CCC(C2CCc3ccc(OC)cc32)CC1` (single isomer, unassigned; (-)) [(-)-N-Methyl-4-(6-methoxy-indan-1-yl)piperidine-1-carboxamide] cannot be ordered by IC50: under 0.01 µM for the first, under 0.01 µM for the second.

`COCC(=O)N1CCC(C2CCc3ccc(OC)cc32)CC1` (single isomer, unassigned; (-)) [(-)-4-(6-Methoxy-indan-1-yl)-1-(2-methoxyacetyl)piperidine] and `CCNC(=O)N1CCC(C2CCc3ccc(OC)cc32)CC1` (single isomer, unassigned; (-)) [(-)-N-Ethyl-4-(6-methoxy-indan-1-yl)piperidine-1-carboxamide] cannot be ordered by IC50: under 0.01 µM for the first, under 0.01 µM for the second.

`COc1ccc2c(c1)C(C1CCN(C(=O)C(C)C)CC1)CC2` (single isomer, unassigned; (-)) [(-)-4-(6-Methoxy-indan-1-yl)-1-(2-methyl-propanoyl)piperidine] and `COc1ccc2c(c1)C(C1CCN(C(=O)C3CC3)CC1)CC2` (stereo not shown) [1-Cyclopropylcarbonyl-4-(6-methoxy-indan-1-yl)piperidine] cannot be ordered by IC50: under 0.01 µM for the first, under 0.01 µM for the second.

Compared with `COc1ccc2c(c1)C(C1CCN(C(=O)C(F)(F)F)CC1)CC2` (single isomer, unassigned; (-)) [(-)-4-(6-methoxy-indan-1-yl)-1-(trifluoroacetyl)piperidine], `O=C(C1CC1)N1CCC(C2CCc3ccc(OC(F)(F)F)cc32)CC1` (stereo not shown) [1-(Cyclopropylcarbonyl)-4-[6-(trifluoromethoxy)-indan-1-yl]piperidine] is higher in IC50: under 0.01 µM for the first, 0.01 to 0.1 µM for the second.

`COc1cc2c(cc1F)CCC2C1CCN(C(=O)C2CC2)CC1` (stereo not shown) [1-(Cyclopropylcarbonyl)-4-(5-fluoro-6-methoxy-indan-1-yl)piperidine] and `COc1cc2c(cc1F)CCC2C1CCN(C(C)=O)CC1` (stereo not shown) [1-Acetyl-4-(5-fluoro-6-methoxy-indan-1-yl)piperidine] cannot be ordered by IC50: under 0.01 µM for the first, under 0.01 µM for the second.

`CCc1ccc2c(c1)C(C1CCN(C(=O)C3CC3)CC1)CC2` (stereo not shown) [1-(Cyclopropylcarbonyl)-4-(6-ethyl-indan-1-yl)piperidine] and `O=C(C1CC1)N1CCC(C2CCc3ccccc32)CC1` (stereo not shown) [1-(Cyclopropylcarbonyl)-4-(indan-1-yl)piperidine] cannot be ordered by IC50: under 0.01 µM for the first, under 0.01 µM for the second.

First: COc1cccc(CCCOc2ccc3c(c2)C(C2CCN(C(=O)C4CC4)CC2)CC3)c1 (stereo not shown) [1-(Cyclopropylcarbonyl)-4-[6-[3-(3-methoxyphenyl)propyloxy]-indan-1-yl]piperidine]
Second: COc1ccc2c(c1)C(C1CCN(C(=O)c3ccco3)CC1)CC2 (stereo not shown) [1-[(2-Furanyl)carbonyl]-4-(6-methoxy-indan-1-yl)-piperidine]
The IC50 of the first is higher: 0.01 to 0.1 µM for the first, under 0.01 µM for the second. The second is the more potent here.

`CCCC(=O)N1CCC(C2CCc3cc(F)c(OC)cc32)CC1` (stereo not shown) [1-Butanoyl-4-(5-fluoro-6-methoxy-indan-1-yl)piperidine] and `CCCC(=O)N1CCC(C2CCc3ccc(F)cc32)CC1` (stereo not shown) [1-Butanoyl-4-(6-fluoro-indan-1-yl)piperidine] cannot be ordered by IC50: under 0.01 µM for the first, under 0.01 µM for the second.

`COc1ccc2c(c1)C(C1CCN(C=O)CC1)CC2` (stereo not shown) [1-Formyl-4-(6-methoxy-indan-1-yl)piperidine] and `COc1ccc2c(c1)C(C1CCN(C(=O)c3ccoc3)CC1)CC2` (stereo not shown) [1-[(3-Furanyl)carbonyl]4-(6-methoxy-indan-1-yl)-piperidine] cannot be ordered by IC50: under 0.01 µM for the first, under 0.01 µM for the second.

First: COc1ccc2c(c1)C(C1CCN(C(=O)c3csc(Cl)c3OC)CC1)CC2 (stereo not shown) [1-[(2-Chloro-3-methoxythien-4-yl)carbonyl]-4-(6-methoxy-indan-1-yl)piperidine]
Second: COc1ccc2c(c1)C(C1CCN(C(=O)c3sccc3Cl)CC1)CC2 (stereo not shown) [1-[(3-Chloro-thien-2-yl)carbonyl]-4-(6-methoxy-indan-1-yl)-piperidine]
The IC50 of the first is higher: 0.01 to 0.1 µM for the first, under 0.01 µM for the second. The second is the more potent here.

Work on `COc1ccc2c(c1)C(C1CCN(C(=O)C3=CCCC3)CC1)CC2` (stereo not shown) [1-[(Cyclopent-1-en-1-yl)carbonyl]-4-(6-methoxy-indan-1-yl)piperidine] yielded an IC50 of under 0.01 µM.
